What was measured:
Format in all cases: biochemical
ERBB2 = target: T1, ERBB2 (Homo sapiens, UniProt P04626); assay: Radiometric protein kinase assay, ERBB2; details: 1 μM ATP; read-out: Inhibitory activity (IC50:μM) ERBB2
T1 construct: host or cells: Sf9 insect cells (baculovirus)
Description: (§1) All protein kinases were expressed in Sf9 insect cells as human recombinant GST-fusion proteins or His-tagged proteins by means of the baculovirus expression system. Kinases were purified by affinity chromatography using either GSH-agarose (Sigma) or Ni-NTH-agarose (Qiagen). The purity of each kinase was checked by SDS-PAGE/silver staining and the identity of each kinase was verified by western blot analysis with kinase specific antibodies or by mass spectroscopy.
(§2) A radiometric protein kinase assay (^33PanQinase® Activity Assay) was used for measuring the kinase activity of the 24 protein kinases. […]
(§3) The reaction cocktails were incubated at 30° C. for 80 minutes. […] Incorporation of ^33Pi was determined with a microplate scintillation counter (Microbeta Trilux, Wallac).
(§4) The median value of the counts in column 1 (n=8) of each assay plate was defined as “low control”. This value reflects unspecific binding of radioactivity to the plate in the absence of a protein kinase but in the presence of the substrate. […]
(§5) As part of the data evaluation the low control value from a particular plate was subtracted from the high control value as well as from all 80 “compound values” of the corresponding plate. The residual activity (in %) for each well of a particular plate was calculated by using the following formula: Res. Activity (%)=100×[(cpm of compound−low control)/(high control−low control)] […]

SAK = target: T2, SAK (Homo sapiens, UniProt O00444); assay: Radiometric protein kinase assay, SAK; details: 1 μM ATP; read-out: Inhibitory activity (IC50:μM) SAK
T2 construct: host or cells: Sf9 insect cells (baculovirus)
T2 sequence (O00444 1-970): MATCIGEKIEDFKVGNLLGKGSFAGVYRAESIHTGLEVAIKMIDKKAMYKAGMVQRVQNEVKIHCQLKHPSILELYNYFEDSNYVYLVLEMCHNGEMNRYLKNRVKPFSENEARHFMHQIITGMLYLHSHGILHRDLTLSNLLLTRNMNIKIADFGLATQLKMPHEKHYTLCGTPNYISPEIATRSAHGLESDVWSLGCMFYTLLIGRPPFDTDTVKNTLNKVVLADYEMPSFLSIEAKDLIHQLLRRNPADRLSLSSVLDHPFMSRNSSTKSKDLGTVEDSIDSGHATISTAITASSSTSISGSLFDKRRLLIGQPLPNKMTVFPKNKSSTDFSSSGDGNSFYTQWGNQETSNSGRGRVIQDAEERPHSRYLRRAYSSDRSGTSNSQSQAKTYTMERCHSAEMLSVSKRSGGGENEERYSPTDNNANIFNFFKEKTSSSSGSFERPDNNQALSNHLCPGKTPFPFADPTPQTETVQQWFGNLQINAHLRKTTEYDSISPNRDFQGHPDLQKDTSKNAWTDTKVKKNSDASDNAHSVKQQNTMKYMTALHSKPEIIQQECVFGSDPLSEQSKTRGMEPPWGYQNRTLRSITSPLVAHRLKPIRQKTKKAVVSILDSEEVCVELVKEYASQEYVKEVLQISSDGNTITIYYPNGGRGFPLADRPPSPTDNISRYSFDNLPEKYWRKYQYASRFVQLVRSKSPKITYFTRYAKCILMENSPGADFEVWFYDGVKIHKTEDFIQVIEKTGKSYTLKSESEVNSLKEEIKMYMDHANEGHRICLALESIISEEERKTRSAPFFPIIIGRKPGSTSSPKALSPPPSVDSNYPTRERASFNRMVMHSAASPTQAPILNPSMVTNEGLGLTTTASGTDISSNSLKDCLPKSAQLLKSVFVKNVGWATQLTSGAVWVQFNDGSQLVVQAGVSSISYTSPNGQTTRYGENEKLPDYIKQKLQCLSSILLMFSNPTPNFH
Description: as §1
(§6) A radiometric protein kinase assay (^33PanQinase® Activity Assay) was used for measuring the kinase activity of the 24 protein kinases. All kinase assays were performed in 96-well FlashPlates™ from Perkin Elmer (Boston, Mass., USA) in a 50 μl reaction volume. The reaction cocktail was pipetted in 4 steps in the following order: • 20 μl of assay buffer • 5 μl of ATP solution (in H2O) • 5 μl of test compound (in 10% DMSO) • 10 μl of substrate/10 […] of enzyme solution (premixed)
The assay for all enzymes contained 60 mM HEPES-NaOH, pH 7.5, 3 mM MgCl2, 3 mM MnCl2, 3 μM Na-orthovanadate, 1.2 mM DTT, 50 μg/ml PEG20000, 1 μM [γ-^33P]-ATP (approx. 5×10^05 cpm per well).
For the 24 kinase assays, the following amounts of enzyme and substrate were used per well:
The reaction cocktails were incubated at 30° C. for 80 minutes. The reaction was stopped with 50 μl of 2% (v/v) H3PO4, plates were aspirated and washed two times with 200 μl of 0.9% (w/v) NaCl or 200 μl H2O. Incorporation of ^33Pi was determined with a microplate scintillation counter (Microbeta Trilux, Wallac).
The median value of the counts in column 1 (n=8) of each assay plate was defined as “low control”. This value reflects unspecific binding of radioactivity to the plate in the absence of a protein kinase but in the presence of the substrate. The median value of the counts in column 7 of each assay plate (n=8) was taken as the “high control”, i.e. full activity in the absence of any inhibitor. The difference between high and low control was taken as 100% activity.
(§7) As part of the data evaluation the low control value from a particular plate was subtracted from the high control value as well as from all 80 “compound values” of the corresponding plate. The residual activity (in %) for each well of a particular plate was calculated by using the following formula: Res. Activity (%)=100×[(cpm of compound−low control)/(high control−low control)]
The residual activities for each concentration and the compound IC50 values were calculated using Quattro Workflow V2.1.0.0 (Quattro Research GmbH, Munich, Germany; www.quattro-research.com). The model used was “Sigmoidal response (variable slope)” with parameters “top” fixed at 100% and “bottom” at 0%.

TIE2 = target: T3, TIE2 (Homo sapiens, UniProt Q02763); assay: Radiometric protein kinase assay, TIE2; details: 1 μM ATP; read-out: Inhibitory activity (IC50:μM) TIE2
T3 construct: host or cells: Sf9 insect cells (baculovirus)
Description: as §1
as §6, with “(premixed) […]” for “(premixed)”
as §3, §4, §7
The residual activities for each concentration and the compound IC50 values were calculated using Quattro Workflow V2.1.0.0 (Quattro Research GmbH, Munich, Germany; www.quattro-research.com). […]

INS-R = target: T4, INS-R (Homo sapiens, UniProt P06213); assay: Radiometric protein kinase assay, INS-R; details: 1 μM ATP; read-out: Inhibitory activity (IC50:μM) INS-R
T4 construct: host or cells: Sf9 insect cells (baculovirus)
Description: as §1, §2, §3, §4, §5

B-RAF-VE = target: T5, B-RAF-VE (Homo sapiens, UniProt P15056, V600E); assay: Radiometric protein kinase assay, B-RAF-VE; details: 1 μM ATP; read-out: Inhibitory activity (IC50:μM) B-RAF-VE
T5 construct: host or cells: Sf9 insect cells (baculovirus)
Description: as §1, §2, §3, §4, §5

T3 sequence (Q02763 23-1124): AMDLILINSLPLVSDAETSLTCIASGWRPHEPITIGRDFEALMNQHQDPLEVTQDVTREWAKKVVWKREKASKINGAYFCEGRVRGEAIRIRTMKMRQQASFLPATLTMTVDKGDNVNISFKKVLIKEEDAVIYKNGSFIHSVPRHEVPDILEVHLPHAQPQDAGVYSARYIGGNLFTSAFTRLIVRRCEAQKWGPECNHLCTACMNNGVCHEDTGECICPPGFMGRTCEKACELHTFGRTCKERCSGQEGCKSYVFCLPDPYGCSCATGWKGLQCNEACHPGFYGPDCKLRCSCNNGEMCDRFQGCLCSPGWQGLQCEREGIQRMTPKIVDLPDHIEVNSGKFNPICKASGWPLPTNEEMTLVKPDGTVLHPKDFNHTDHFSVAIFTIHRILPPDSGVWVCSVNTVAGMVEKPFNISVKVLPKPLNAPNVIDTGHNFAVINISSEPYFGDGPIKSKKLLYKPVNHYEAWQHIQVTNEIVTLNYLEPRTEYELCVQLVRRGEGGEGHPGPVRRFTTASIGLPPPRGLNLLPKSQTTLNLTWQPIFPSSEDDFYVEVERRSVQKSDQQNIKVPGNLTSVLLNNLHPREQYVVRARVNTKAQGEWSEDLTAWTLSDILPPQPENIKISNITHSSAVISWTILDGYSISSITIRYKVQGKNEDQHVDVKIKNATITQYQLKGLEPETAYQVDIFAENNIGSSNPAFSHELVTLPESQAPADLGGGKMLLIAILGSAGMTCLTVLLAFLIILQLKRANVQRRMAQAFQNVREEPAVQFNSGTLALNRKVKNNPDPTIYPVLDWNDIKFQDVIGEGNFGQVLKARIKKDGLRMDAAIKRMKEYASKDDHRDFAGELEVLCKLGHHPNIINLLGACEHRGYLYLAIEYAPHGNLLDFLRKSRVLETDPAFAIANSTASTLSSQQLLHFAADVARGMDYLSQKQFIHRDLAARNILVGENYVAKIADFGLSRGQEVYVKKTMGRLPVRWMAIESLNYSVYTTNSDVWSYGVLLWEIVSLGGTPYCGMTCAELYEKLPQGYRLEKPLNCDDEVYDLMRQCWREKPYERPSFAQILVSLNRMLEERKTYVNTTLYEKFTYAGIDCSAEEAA
T1 sequence (P04626 23-1255): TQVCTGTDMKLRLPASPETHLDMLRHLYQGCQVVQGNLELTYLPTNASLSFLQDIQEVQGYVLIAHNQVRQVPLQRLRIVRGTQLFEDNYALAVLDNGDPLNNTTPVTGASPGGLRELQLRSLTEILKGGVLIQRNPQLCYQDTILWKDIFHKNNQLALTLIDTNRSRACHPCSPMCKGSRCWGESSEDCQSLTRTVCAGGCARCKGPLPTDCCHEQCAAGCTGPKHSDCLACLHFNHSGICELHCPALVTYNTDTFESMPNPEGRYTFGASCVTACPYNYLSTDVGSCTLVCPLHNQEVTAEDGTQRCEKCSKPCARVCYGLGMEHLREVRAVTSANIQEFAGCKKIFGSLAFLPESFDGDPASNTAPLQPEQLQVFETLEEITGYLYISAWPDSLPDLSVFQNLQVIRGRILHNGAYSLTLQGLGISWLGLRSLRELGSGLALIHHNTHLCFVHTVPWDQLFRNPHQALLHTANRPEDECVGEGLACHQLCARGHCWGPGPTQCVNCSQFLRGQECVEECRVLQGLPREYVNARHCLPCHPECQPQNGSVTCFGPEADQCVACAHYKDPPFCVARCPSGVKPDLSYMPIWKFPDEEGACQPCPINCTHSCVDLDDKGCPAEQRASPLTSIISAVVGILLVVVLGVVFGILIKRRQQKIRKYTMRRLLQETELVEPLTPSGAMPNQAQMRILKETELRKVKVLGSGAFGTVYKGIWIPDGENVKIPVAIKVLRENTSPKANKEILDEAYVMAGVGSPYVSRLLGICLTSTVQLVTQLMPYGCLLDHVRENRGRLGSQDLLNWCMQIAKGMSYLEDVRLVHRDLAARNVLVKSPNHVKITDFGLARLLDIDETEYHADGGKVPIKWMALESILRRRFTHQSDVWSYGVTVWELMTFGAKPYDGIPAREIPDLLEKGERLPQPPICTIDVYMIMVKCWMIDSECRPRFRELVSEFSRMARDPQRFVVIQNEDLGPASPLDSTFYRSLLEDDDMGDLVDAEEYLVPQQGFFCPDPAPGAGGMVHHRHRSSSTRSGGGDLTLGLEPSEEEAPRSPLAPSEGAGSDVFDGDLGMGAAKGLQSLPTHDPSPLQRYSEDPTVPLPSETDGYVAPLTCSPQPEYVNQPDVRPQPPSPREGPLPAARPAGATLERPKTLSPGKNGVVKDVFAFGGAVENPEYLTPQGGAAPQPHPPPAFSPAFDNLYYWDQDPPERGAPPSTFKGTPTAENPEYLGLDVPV
T4 sequence (P06213 980-1382 limits assumed): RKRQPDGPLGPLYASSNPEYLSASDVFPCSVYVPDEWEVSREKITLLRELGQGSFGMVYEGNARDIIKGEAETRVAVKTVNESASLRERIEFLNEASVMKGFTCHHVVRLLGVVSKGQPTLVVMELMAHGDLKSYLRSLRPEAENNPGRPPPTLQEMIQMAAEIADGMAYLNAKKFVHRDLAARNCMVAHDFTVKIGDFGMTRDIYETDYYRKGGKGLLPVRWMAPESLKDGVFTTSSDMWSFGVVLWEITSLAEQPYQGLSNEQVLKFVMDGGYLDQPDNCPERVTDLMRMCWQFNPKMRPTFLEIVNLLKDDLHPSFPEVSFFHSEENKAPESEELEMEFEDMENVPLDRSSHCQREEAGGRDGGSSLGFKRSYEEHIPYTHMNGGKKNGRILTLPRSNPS
T5 sequence (P15056 whole entry V600E): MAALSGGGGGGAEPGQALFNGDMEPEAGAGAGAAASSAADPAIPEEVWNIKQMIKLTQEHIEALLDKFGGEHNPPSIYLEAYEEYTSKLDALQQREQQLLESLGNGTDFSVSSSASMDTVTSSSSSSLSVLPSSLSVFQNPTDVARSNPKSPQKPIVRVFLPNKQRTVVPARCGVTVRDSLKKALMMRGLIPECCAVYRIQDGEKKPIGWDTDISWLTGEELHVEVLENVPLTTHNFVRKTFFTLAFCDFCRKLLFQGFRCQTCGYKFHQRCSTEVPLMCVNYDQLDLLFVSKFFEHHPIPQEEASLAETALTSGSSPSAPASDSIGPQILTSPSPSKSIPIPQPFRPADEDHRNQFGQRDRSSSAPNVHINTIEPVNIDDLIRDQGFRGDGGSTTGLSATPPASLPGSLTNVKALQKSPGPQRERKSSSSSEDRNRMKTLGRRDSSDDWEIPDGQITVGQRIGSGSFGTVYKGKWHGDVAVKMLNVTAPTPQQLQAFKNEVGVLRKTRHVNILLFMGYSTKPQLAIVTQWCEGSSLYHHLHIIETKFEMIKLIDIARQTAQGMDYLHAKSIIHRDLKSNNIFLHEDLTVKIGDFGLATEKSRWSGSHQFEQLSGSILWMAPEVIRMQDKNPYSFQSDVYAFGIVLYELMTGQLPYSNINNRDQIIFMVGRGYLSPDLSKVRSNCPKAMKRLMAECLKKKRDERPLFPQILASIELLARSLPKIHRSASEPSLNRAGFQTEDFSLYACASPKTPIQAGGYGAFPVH

SMILES	IC50 (ERBB2) [µM]	IC50 (SAK) [µM]	IC50 (TIE2) [µM]	IC50 (INS-R) [µM]	IC50 (B-RAF-VE) [µM]
COC1CC/C=C/C[C@H](c2ccccc2)OC(=O)c2c(O)cc(O)c(Cl)c2CC(=O)C1 (stereo partly shown) [A-2]	16	17	16	36	
O=C1Cc2c(Cl)c(O)cc(O)c2C(=O)O[C@H](c2ccccc2)C/C=C/CCC(Cl)C1 (stereo partly shown) [A-3]	24	25	15	44	
CC(C)[C@@H]1CC2OC2CC/C=C/C(=O)Cc2c(Cl)c(O)cc(O)c2C(=O)O1 (stereo partly shown) [A-4]		19			
O=C1/C=C/CCC2OC2C[C@H](c2ccccc2)OC(=O)c2c(O)cc(O)c(Cl)c2C1 (stereo partly shown) [A-5]		20			50
O=C1/C=C/CCC2OC2C[C@@H](Cc2ccccc2)OC(=O)c2c(O)cc(O)cc2C1 (stereo partly shown) [A-6]		17	25		

— patent US8450305B2, “Macrocyclic compounds useful as inhibitors of kinases and HSP90” (Universite de Strasbourg, priority 2006, dated 2013)
